The source of these data is US10538554B2, “Peptides and uses therefor as antiviral agents” (priority 2015, dated 2020).

This test has as its system H1N1 A/PR/8-MC/1934. Also noted: species or system BALB/c female mice. The conditions noted are these: mouse, in vivo.

Bridge positions count the residues as written; N and C are the ends. Square brackets hold non-standard residues; d marks the D form. Peptide text beside a SMILES is read from it.

For the molecule `CC[C@@H](C)[C@H]1NC(=O)[C@@H](Cc2ccccc2)NC(=O)[C@@H]([C@H](C)O)NC(=O)[C@@H](Cc2ccccc2)NC(=O)[C@@H](Cc2c[nH]c3ccccc23)NC(=O)[C@@H]([C@H](C)O)NC(=O)[C@H](NC(=O)[C@H](CCCCN)NC(=O)[C@H](CCCCN)NC(=O)[C@H](CCCNC(=N)N)NC(=O)[C@@H](N)CCCNC(=N)N)CSSC[C@H](C(=O)O)NC(=O)[C@@H](CC(N)=O)NC1=O` [PSP IV A17, H-RRKKctwftfinc-OH] (H-RRKK[dC][dT][dW][dF][dT][dF][dI][dN][dC]-OH; disulfide 5-13), the “morbidity of influenza infected mice” value was “completely inhibited the morbidity”.
